From EPA's ToxRefDB 2

Columns and labels:
[1] = system: dog; conditions: Combined chronic toxicity/carcinogenicity; beagle; Oral; Feed; dose end: 104 week; group: systemic; systemic / clinical chemistry / alanine aminotransferase (alt/sgpt) / alanine aminotransferase (alt/sgpt) + systemic / clinical chemistry / …
[2] = system: rabbit; conditions: Prenatal developmental toxicity study, new zealand white, Oral, Gavage/Intubation, dose end: 19 GD
[3] = system: rat; conditions: Subchronic oral toxicity in rodents, other, Feed, dose end: 90 day, group: systemic, systemic / pathology gross / kidney / enlarged + systemic / pathology gross / liver / enlarged + systemic / urinalysis / glucose / glucose…
[4] = system: rat; conditions: Combined chronic toxicity/carcinogenicity; sprague dawley; Inhalation; Whole-Body; dose end: 24 month; group: systemic; systemic / clinical chemistry / alanine aminotransferase (alt/sgpt) / alanine aminotransferase (alt/sgpt) + systemic / clinical chemistry / …
[5] = system: rat; conditions: Subchronic oral toxicity in rodents; sprague dawley; Inhalation; Whole-Body; dose end: 3 month; group: systemic; systemic / clinical chemistry / gamma glutamyl transferase (ggt) / gamma glutamyl transferase (ggt) + systemic / clinical chemistry / …
[6] = system: mouse; conditions: Carcinogenicity, cd1, Oral, Feed, dose end: 80 week, group: systemic
[7] = system: dog; conditions: Chronic toxicity; beagle; Oral; Feed; dose end: 12 month; group: systemic; systemic / clinical chemistry / alkaline phosphatase (alp/alk) / alkaline phosphatase (alp/alk) + systemic / organ weight / liver / absolute…
[8] = system: rat; conditions: Combined chronic toxicity/carcinogenicity, fischer, Oral, Feed, dose end: 24 month, group: systemic
[9] = system: rat; conditions: Subchronic oral toxicity in rodents, fischer, Feed, dose end: 90 day, group: systemic
[10] = system: mouse; conditions: Subchronic oral toxicity in rodents, cd1, Feed, dose end: 13 week, group: systemic, systemic / organ weight / liver / absolute + systemic / organ weight / liver / relative to body weight + systemic / pathology microscopic / …
[11] = system: mouse; conditions: Subchronic oral toxicity in rodents, b6c3f1, Feed, dose end: 13 week, group: systemic
[12] = system: mouse; conditions: Subchronic dermal toxicity, b6c3f1, Topical, dose end: 13 week, group: systemic, systemic / pathology gross / sperm measure / sperm count
[13] = system: rat; conditions: Subchronic dermal toxicity, fischer, Topical, dose end: 13 week, group: systemic, systemic / organ weight / kidney / relative to body weight
[14] = system: rat; conditions: Subchronic oral toxicity in rodents, fischer, Feed, dose end: 13 week
[15] = group: developmental, developmental / developmental malformation / bone / supernumerary + systemic / in life observation / body weight / fetal weight
[16] = group: maternal, systemic / in life observation / body weight / body weight gain
[17] = systemic / in life observation / body weight / body weight + systemic / in life observation / body weight / body weight gain + systemic / …
[18] = systemic / in life observation / body weight / body weight gain + systemic / organ weight / kidney / relative to body weight
[19] = systemic / in life observation / body weight / body weight gain + systemic / organ weight / kidney / relative to body weight + systemic / …
[20] = systemic / in life observation / body weight / body weight gain + systemic / pathology microscopic / liver / hypertrophy + systemic / in …
[21] = systemic / in life observation / body weight / body weight gain + systemic / pathology microscopic / liver / hypertrophy + systemic / organ …
[22] = systemic / organ weight / liver / relative to body weight
[23] = group: maternal, reproductive / reproductive performance / estrous cycle / length
[24] = group: systemic, systemic / clinical chemistry / gamma glutamyl transferase (ggt) / gamma glutamyl transferase (ggt) + systemic / in life observation / body …
[25] = group: systemic, systemic / organ weight / liver / absolute + systemic / organ weight / liver / relative to body weight

COc1cc(Cl)c(OC)cc1Cl [Chloroneb]
LEL [1]: 62.5 mg/kg/day
LOAEL [1]: 62.5 mg/kg/day
NEL [1]: 12.5 mg/kg/day
NOAEL [1]: 12.5 mg/kg/day
LEL [2, 15]: 1000 mg/kg/day
LOAEL [2, 15]: 1000 mg/kg/day
NEL [2, 15]: 100 mg/kg/day
NOAEL [2, 15]: 100 mg/kg/day
LEL [2, 16]: 1000 mg/kg/day
LOAEL [2, 16]: 1000 mg/kg/day
NEL [2, 16]: 100 mg/kg/day
NOAEL [2, 16]: 100 mg/kg/day
LEL [3]: 375 mg/kg/day
LOAEL [3]: 375 mg/kg/day
NEL [3]: 25 mg/kg/day
NOAEL [3]: 25 mg/kg/day

C=CN1CCCC1=O [N-Vinyl-2-pyrrolidone]
LEL [4]: 5 ppm
LOAEL [4]: > 20 ppm
NEL [4]: < 5 ppm
NOAEL [4]: ≥ 20 ppm
LEL [5]: 45 ppm
LOAEL [5]: > 45 ppm
NEL [5]: < 45 ppm
NOAEL [5]: ≥ 45 ppm

Fc1ccc(Oc2ccnc3cc(Cl)cc(Cl)c23)cc1 [Quinoxyfen]
LOAEL ([6]; systemic / in life observation / body weight / body weight + systemic / in life observation / body weight / body weight gain): 250 mg/kg/day
LEL [6, 17]: 250 mg/kg/day
NEL [6, 17]: 80 mg/kg/day
NOAEL [6, 17]: 80 mg/kg/day
LEL [7]: 200 mg/kg/day
LOAEL [7]: 200 mg/kg/day
NEL [7]: 20 mg/kg/day
NOAEL [7]: 20 mg/kg/day
NEL [8, 18]: 20 mg/kg/day
NOAEL [8, 18]: 20 mg/kg/day
LEL [8, 19]: 80 mg/kg/day
LOAEL [8, 19]: 80 mg/kg/day
NEL [9, 20]: 10 mg/kg/day
NOAEL [9, 20]: 10 mg/kg/day
LEL [9, 21]: 100 mg/kg/day
LOAEL [9, 21]: 100 mg/kg/day
LEL [10]: 500 mg/kg/day
LOAEL [10]: 500 mg/kg/day
NEL [10]: 100 mg/kg/day
NOAEL [10]: 100 mg/kg/day

COc1ccc(C(=O)c2ccccc2)c(O)c1 [2-Hydroxy-4-methoxybenzophenone]
LOAEL [11, 17]: > 13900 mg/kg/day
NOAEL [11, 17]: ≥ 13900 mg/kg/day
LEL [11, 22]: 629 mg/kg/day
NEL [11, 22]: < 629 mg/kg/day
LEL [12]: 22.5 mg/kg/day
LOAEL [12]: > 364 mg/kg/day
NEL [12]: < 22.5 mg/kg/day
NOAEL [12]: ≥ 364 mg/kg/day
LEL [13]: 25 mg/kg/day
LOAEL [13]: > 200 mg/kg/day
NEL [13]: 12.5 mg/kg/day
NOAEL [13]: ≥ 200 mg/kg/day
LEL [14, 23]: 3260 mg/kg/day
LOAEL [14, 23]: > 3260 mg/kg/day
NEL [14, 23]: 1600 mg/kg/day
NOAEL [14, 23]: ≥ 3260 mg/kg/day
LOAEL [14, 24]: > 3260 mg/kg/day
NOAEL [14, 24]: ≥ 3260 mg/kg/day
LEL [14, 25]: 196 mg/kg/day
NEL [14, 25]: < 196 mg/kg/day
